Measured values: patent publication US8445440B2, “Dimeric IAP inhibitors” (Novartis AG, priority 2010, dated 2013)

Columns and labels:
[1] = system: SKOV3 or Panc3.27 tumor cells; assay: In vitro combination study, fixed concentration of IAP inhibitor with varied combination agent; assay type: cell-based; conditions: each agent alone
Method: (§1) On day one adherent SKOV3 and Panc3.27 cells are plated into two 96-well, clear, flat bottom plates. All wells in row A contain 90 uL of media. All wells in rows B-G contain a total volume of 90 uL per well and 2000 cells per well for SKOV3 and 4000 cells per well for Panc3.27 cell lines. Plates are then incubated overnight for 18 hours at 37° C., 5% CO2.
On day two cells are treated with the compounds of formula M-L-M′. Treatments are done in triplicate. The compounds are first serially diluted in DMSO and then added to media giving a final concentration of 0.2% DMSO when added to cells. […]
To measure cell viability 50 uL of Cell Titer Glo (CTG) solution is added to row A, media only and B, cells and media. […] After incubating for ten minutes with CTG plates are measured on a luminescent reader at 700 nm wavelength. Read time is approximately one second per well for a 96-well plate.
On day five 50 uL of CTG is added to plate one, rows A-G, incubated for 10 minutes at room temperature and read on a luminescent reader. […] Triplicate values are averaged and percent control growth is calculated. Percent control growth is calculated using the following logical test: If well read data point (a) is greater than time zero data point (t=0), then 100*[(a)−(t=0)]/[(72 hour total growth)−(t=0)], OR 100*[(a)−(t=0)]/[(t=0)]. […]

XIAP-BIR3 = XIAP-BIR3 (Homo sapiens, UniProt P98170); assay: Biacore SPR solution competition binding assay vs smac7 mer peptide, XIAP-BIR3; conditions: citrate salt form tested; 100 nM XIAP-BIR3; 25° C.; read-out: XIAP-BIR3 Binding Biacore (Competitive) EC50
Source text: (§2) The compounds described herein above were profiled using a cellular assay (using SKOV3 or Panc3.27 tumor cells) and a binding assay to determine the competition between the compounds of the present invention and smac7 mer peptide for XIAP-BIR3 and cIAP1-BIR3 binding groove occupancy.
(§3) The present method includes utility of a Surface plasmon resonance (SPR)-based biosensor (Biacore™ GE Healthcare, Uppsala, Sweden) to examine competition between the compounds of the present invention and smac7 mer peptide for XIAP-BIR3 and cIAP1-BIR3 binding groove occupancy.
(§4) Biacore™ utilizes the phenomenon of surface plasmon resonance (SPR) to detect and measure binding interactions. In a typical Biacore experiment, one of the interacting molecules is immobilized on a flexible dextran matrix while the interacting partner is flowed over the derivatized surface. A binding interaction results in an increase in mass on the sensor surface and a corresponding direct change in the refractive index of the medium in the vicinity of the sensor surface. Changes in refractive index or signal are recorded in resonance units (R.U.) Signal changes due to association and dissociation of complexes are monitored in a non-invasive manner, continuously and in real-time, the results of which are reported in the form of a sensorgram.
(§5) Biacore™ T100 (GE Healthcare, Uppsala, Sweden) was used to conduct all experiments reported herein. Sensor surface preparation and interaction analyses were performed at 25° C. Buffer and Biacore reagents were purchased from GE Healthcare. Running buffer containing 10 mM Hepes, pH7.4, 150 mM sodium chloride, 1.25 mM Dithiothreitol, 2% Dimethyl sulfoxide and 0.05% polysorbate 20 was utilized throughout all experiments.
(§6) Biotinylated smac7 mer peptide was diluted to 10 nM in running buffer and captured onto a sensor surface pre-derivatized with streptavidin (sensor chip SA) towards peptide surface densities in the range 40-100 R.U. Peptide captured surfaces were blocked with 500 μM PEO2-Biotin (Thermo Scientific).
(§7) Interaction analyses were performed by first equilibrating each compound within a six point seven fold compound dilution series in the range 1 μM to 0.06 nM with either 100 nM XIAP-BIR3 or 6 nM cIAP1-BIR3 for at least one hour during instrument start-up procedures. Protein compound mixtures were then injected over reference and smac7 mer peptide surfaces in series for 60 seconds at a flow-rate of 64 μL/minutes. Surface regeneration was performed at the end of each analysis cycle by a 30 second injection of 10 mM Glycine, pH 2.5, 1M Sodium Chloride, 0.05% polysorbate 20. Additionally, control compound samples and control XIAP-BIR3 or cIAP1-BIR3 samples were prepared and run at regular intervals to monitor surface and assay performance.
(§8) Data analyses were carried out using Biacore™ T100 evaluation software v2.0 to validate assay quality. Binding level report points were plotted versus logarithmic compound concentration values and analyzed in Graphpad prism 5 via non-linear regression using a one-site competition model. EC50 values were generated and used as a measure of inhibitor potency.

Panc3.27 tumor cells = assay: Cellular assay, Panc3.27 tumor cell proliferation (Cell Titer Glo); assay type: cell-based; conditions: citrate salt form tested, Panc3.27 cells, 72 hour growth, read-out: PANC proliferation IC50
Method: as §2, §1
(§9) On day two cells are treated with the compounds of formula M-L-M′. Treatments are done in triplicate. The compounds are first serially diluted in DMSO and then added to media giving a final concentration of 0.2% DMSO when added to cells. Cells are treated with 10 uL of serially diluted compounds of formula M-L-M′ at a final concentration of 1000 nM, 200 nM, 40 nM, 8 nM, 1.6 nM, 0.32 nM, 0.06 nM, 0.013 nM, 0.0026 nM, and one untreated well. Plate two is used as a time zero plate.
(§10) To measure cell viability 50 uL of Cell Titer Glo (CTG) solution is added to row A, media only and B, cells and media. CTG is purchased from Promega Corporation catalog number G7573. The solution is prepared according to manufacturer's instructions. CTG measures the amount of ATP released from viable cells that is proportional to the number of cells in each well. After incubating for ten minutes with CTG plates are measured on a luminescent reader at 700 nm wavelength. Read time is approximately one second per well for a 96-well plate.
(§11) On day five 50 uL of CTG is added to plate one, rows A-G, incubated for 10 minutes at room temperature and read on a luminescent reader. Raw data is adjusted to account for the time zero plate as well as background noise. Triplicate values are averaged and percent control growth is calculated. Percent control growth is calculated using the following logical test: If well read data point (a) is greater than time zero data point (t=0), then 100*[(a)−(t=0)]/[(72 hour total growth)−(t=0)], OR 100*[(a)−(t=0)]/[(t=0)]. Data is represented by line graph with the concentration of compound on the x axis and percent control growth on the y axis.

cIAP1-BIR3 = cIAP1-BIR3 (Homo sapiens, UniProt Q13490); assay: Biacore SPR solution competition binding assay vs smac7 mer peptide, cIAP1-BIR3; conditions: citrate salt form tested; 6 nM cIAP1-BIR3; 25° C.; read-out: CIAP-BIR3 Binding Biacore (Competitive) EC50
Source text: as §2, §3, §4, §5, §6, §7, §8

SKOV3 tumor cells = assay: Cellular assay, SKOV3 tumor cell proliferation (Cell Titer Glo); assay type: cell-based; conditions: Homo sapiens, SK-OV-3, citrate salt form tested, 72 hour growth
Method: as §2, §1, §9, §10, §11

Sequence of XIAP-BIR3 (P98170 241-356 limits assumed): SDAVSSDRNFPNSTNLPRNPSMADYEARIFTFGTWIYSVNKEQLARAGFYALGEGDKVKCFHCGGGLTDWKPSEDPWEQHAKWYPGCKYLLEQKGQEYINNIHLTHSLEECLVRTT
Sequence of cIAP1-BIR3 (Q13490 260-352 limits assumed): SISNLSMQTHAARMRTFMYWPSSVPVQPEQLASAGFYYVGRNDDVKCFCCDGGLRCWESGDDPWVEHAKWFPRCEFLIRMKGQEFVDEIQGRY

SMILES | single agent activity in the in vitro combination study [1] | EC50 (XIAP-BIR3) | IC50 (Panc3.27 tumor cells) | EC50 (cIAP1-BIR3) | IC50 (SKOV3 tumor cells)
CC(=O)O[C@H]1C(=O)[C@@]2(C)[C@H]([C@H](OC(=O)c3ccccc3)[C@]3(O)C[C@H](OC(=O)[C@H](O)[C@@H](NC(=O)c4ccccc4)c4ccccc4)C(C)=C1C3(C)C)[C@]1(OC(C)=O)CO[C@@H]1C[C@@H]2O [Paclitaxel, paclitaxel, reference compound] | neither Example 1J nor paclitaxel alone showed significant activity |  |  |  | 
CN[C@@H](C)C(=O)N[C@@H](CCCCNC(=O)c1ccc(-c2ccc(C(=O)NCCCC[C@H](NC(=O)[C@H](C)NC)C(=O)N3CCC[C@H]3c3cncc(C(=O)c4ccc(F)cc4)c3)cc2)cc1)C(=O)N1CCC[C@H]1c1cncc(C(=O)c2ccc(F)cc2)c1 [Example 1J, Biphenyl-4,4′-dicarboxylic acid bis-{[(S)-6-{(S)-2-[5-(4-fluorobenzoyl)-pyridin-3-yl]-pyrrolidin-1-yl}-5-((S)-2-methylamino-propionylamino)-6-oxo-hexyl]-amide}] | neither Example 1J nor paclitaxel alone showed significant activity | 60.4 to 162 nM | 0.0026 to 6.67 nM | 0.58 to 3.12 nM | 0.026 to 5.94 nM
CN[C@@H](C)C(=O)N[C@@H](CCCCNC(=O)CCCCCC(=O)NCCCC[C@H](NC(=O)[C@H](C)NC)C(=O)N1CCC[C@H]1c1cncc(C(=O)c2ccc(F)cc2)c1)C(=O)N1CCC[C@H]1c1cncc(C(=O)c2ccc(F)cc2)c1 [Example 1A, Heptanedioic acid bis-{[(S)-6-{(S)-2-[5-(4-fluoro-benzoyl)-pyridin-3-yl]-pyrrolidin-1-yl}-5-((S)-2-methylamino-propionylamino)-6-oxo-hexyl]-amide}] |  | 126 to 131 nM | 72.4 to 427 nM | 0.68 to 0.7 nM | 41 to 77.1 nM
CN[C@@H](C)C(=O)N[C@@H](CCCCNC(=O)c1cccc(C(=O)NCCCC[C@H](NC(=O)[C@H](C)NC)C(=O)N2CCC[C@H]2c2cncc(C(=O)c3ccc(F)cc3)c2)c1)C(=O)N1CCC[C@H]1c1cncc(C(=O)c2ccc(F)cc2)c1 [Example 1E, N,N′-Bis-[(S)-6-{(S)-2-[5-(4-fluoro-benzoyl)-pyridin-3-yl]-pyrrolidin-1-y}-5-((S)-2-methylamino-propionylamino)-6-oxo-hexyl]-isophthalamide] |  | 139 to 158 nM | 26.8 to 185 nM | 0.47 to 0.52 nM | 26.7 to 79.4 nM
O=C(NCCCC[C@H](NC(=O)[C@@H]1CCN1)C(=O)N1CCC[C@H]1c1cncc(C(=O)c2ccc(F)cc2)c1)c1ccc(-c2ccc(C(=O)NCCCC[C@H](NC(=O)[C@@H]3CCN3)C(=O)N3CCC[C@H]3c3cncc(C(=O)c4ccc(F)cc4)c3)cc2)cc1 [Example 1K, Biphenyl-4,4′-dicarboxylic acid bis-[((S)-5-[((S)-azetidine-2-carbonyl)-amino]-6-{(S)-2-[5-(4-fluoro-benzoyl)-pyridin-3-yl]-pyrrolidin-1-yl}-6-oxo-hexyl)-amide]] |  | 636 to 704 nM | > 10000 nM | 18.4 to 19.4 nM | 9420 to 9460 nM
CN[C@@H](C)C(=O)N[C@@H](Cc1ccc(NC(=O)c2cccc(C(=O)Nc3ccc(C[C@H](NC(=O)[C@H](C)NC)C(=O)N4CCC[C@H]4c4cncc(C(=O)c5ccc(F)cc5)c4)cc3)c2)cc1)C(=O)N1CCCC1c1cncc(C(=O)c2ccc(F)cc2)c1 (stereo partly drawn) [Example 2D, N,N′-Bis-{4-[(S)-3-{(S)-2-[5-(4-fluoro-benzoyl)-pyridin-3-yl]-pyrrolidin-1-yl}-2-((S)-2-methylamino-propionylamino)-3-oxo-propyl]-pheny}-isophthalamide] |  | 228 to 238 nM | 167 to 694 nM | 0.66 to 0.68 nM | 107 to 291 nM
